Measurements as given in PubChem BioAssay AID2060888 (Molecular Pharmacology Branch, DTP, NCI, 2025).
pIC50: −log10 of the molar value. “And” between values parts separate entries of the source, which are not always exact repeats. Equal entries are not always repeated. One block for each compound: values may come before it.

Test system: 695427-040-R-J1-PDC complex spheroid viability
Experiment: Anticancer human tumor 695427-040-R-J1-PDC patient-derived colon adenocarcinoma cell line growth inhibition [RAS]
Conditions: for viability, T/C: stronger effect = lower value
How it was run: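 Multi-cell-type spheroids: tumor cells plus HUVEC endothelial cells and mesenchymal stem cells. RAS-pathway inhibitors were combined with targeted agents, each dosed in half-log steps down from clinical Cmax, or from 10 microM when Cmax was unknown.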

[1] = curve of first compound, second compound 0.00316 µM
[2] = curve of first compound, second compound 0.01 µM
[3] = curve of first compound, second compound 0.0316 µM
[4] = curve of first compound, second compound 0.1 µM
[5] = curve of first compound, second compound 0.316 µM
[6] = curve of first compound, second compound 1 µM
[7] = second compound 0.00316 µM, first compound 0.0316 µM
[8] = second compound 0.00316 µM, first compound 0.1 µM
[9] = second compound 0.00316 µM, first compound 0.316 µM
[10] = second compound 0.00316 µM, first compound 1 µM
[11] = second compound 0.01 µM, first compound 0.0316 µM
[12] = second compound 0.01 µM, first compound 0.1 µM
[13] = second compound 0.01 µM, first compound 0.316 µM
[14] = second compound 0.01 µM, first compound 1 µM
[15] = second compound 0.0316 µM, first compound 0.0316 µM
[16] = second compound 0.0316 µM, first compound 0.1 µM
[17] = second compound 0.0316 µM, first compound 0.316 µM
[18] = second compound 0.0316 µM, first compound 1 µM
[19] = second compound 0.1 µM, first compound 0.0316 µM
[20] = second compound 0.1 µM, first compound 0.1 µM
[21] = second compound 0.1 µM, first compound 0.316 µM
[22] = second compound 0.1 µM, first compound 1 µM
[23] = second compound 0.316 µM, first compound 0.0316 µM
[24] = second compound 0.316 µM, first compound 0.1 µM
[25] = second compound 0.316 µM, first compound 0.316 µM
[26] = second compound 0.316 µM, first compound 1 µM
[27] = second compound 1 µM, first compound 0.0316 µM
[28] = second compound 1 µM, first compound 0.1 µM
[29] = second compound 1 µM, first compound 0.316 µM
[30] = second compound 1 µM, first compound 1 µM
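Note: viability read after seven days of drug exposure.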
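Throughout, for viability, T/C: 100% = DMSO vehicle control viability.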

SMILES: CC1(O)CCCC1n1c(=O)c(C(F)F)cc2cnc(NC3CCN(S(C)(=O)=O)CC3)nc21 (stereo unspecified) + C=CC(=O)N1CCN(c2nc(OCC3CCCN3C)nc3c(F)c(-c4nc(N)cc(C)c4C(F)(F)F)c(Cl)cc23)C(C)C1
pIC50 [1]: < 5.00
pIC50 [2]: < 5.00
pIC50 [3]: < 5.00
pIC50 [4]: < 5.00
pIC50 [5]: < 5.00
pIC50 [6]: 5.05
viability, T/C [7]: 95.4%
viability, T/C [8]: 93.5%
viability, T/C [9]: 101%
viability, T/C [10]: 111%
viability, T/C (second compound 0.00316 µM, first compound 3.16 µM): 116%
viability, T/C (second compound 0.00316 µM, first compound 10 µM): 59.6%
viability, T/C [11]: 109%
viability, T/C [12]: 91.8%
viability, T/C [13]: 104%
viability, T/C [14]: 109%
viability, T/C (second compound 0.01 µM, first compound 3.16 µM): 124%
viability, T/C (second compound 0.01 µM, first compound 10 µM): 58.1%
viability, T/C [15]: 99.5%
viability, T/C [16]: 96%
viability, T/C [17]: 107%
viability, T/C [18]: 110%
viability, T/C (second compound 0.0316 µM, first compound 3.16 µM): 122%
viability, T/C (second compound 0.0316 µM, first compound 10 µM): 57.6%
viability, T/C [19]: 94.4%
viability, T/C [20]: 95.3%
viability, T/C [21]: 107%
viability, T/C [22]: 112%
viability, T/C (second compound 0.1 µM, first compound 3.16 µM): 126%
viability, T/C (second compound 0.1 µM, first compound 10 µM): 56.4%
viability, T/C [23]: 99.6%
viability, T/C [24]: 102%
viability, T/C [25]: 97.5%
viability, T/C [26]: 120%
viability, T/C (second compound 0.316 µM, first compound 3.16 µM): 124%
viability, T/C (second compound 0.316 µM, first compound 10 µM): 60.3%
viability, T/C [27]: 97.5%
viability, T/C [28]: 94.5%
viability, T/C [29]: 101%
viability, T/C [30]: 118%
viability, T/C (second compound 1 µM, first compound 3.16 µM): 120%
viability, T/C (second compound 1 µM, first compound 10 µM): 43.1%

SMILES: C=CC(=O)Nc1cc(Nc2nccc(-c3cn(C)c4ccccc34)n2)c(OC)cc1N(C)CCN(C)C + C=CC(=O)N1CCN(c2nc(OCC3CCCN3C)nc3c(F)c(-c4nc(N)cc(C)c4C(F)(F)F)c(Cl)cc23)C(C)C1
pIC50 [1]: 6.39
pIC50 [2]: 6.30
pIC50 [3]: 6.39
pIC50 [4]: 6.37
pIC50 [5]: 6.34
pIC50 [6]: 6.37
viability, T/C (second compound 0.00316 µM, first compound 0.00316 µM): 96.5%
viability, T/C (second compound 0.00316 µM, first compound 0.01 µM): 94.1%
viability, T/C [7]: 86.2%
viability, T/C [8]: 76.5%
viability, T/C [9]: 54.6%
viability, T/C [10]: 31.4%
viability, T/C (second compound 0.01 µM, first compound 0.00316 µM): 102%
viability, T/C (second compound 0.01 µM, first compound 0.01 µM): 94.5%
viability, T/C [11]: 83.7%
viability, T/C [12]: 72.2%
viability, T/C [13]: 57.5%
viability, T/C [14]: 39.2%
viability, T/C (second compound 0.0316 µM, first compound 0.00316 µM): 112%
viability, T/C (second compound 0.0316 µM, first compound 0.01 µM): 99.1%
viability, T/C [15]: 83.8%
viability, T/C [16]: 71%
viability, T/C [17]: 58.2%
viability, T/C [18]: 32.7%
viability, T/C (second compound 0.1 µM, first compound 0.00316 µM): 94.7%
viability, T/C (second compound 0.1 µM, first compound 0.01 µM): 100%
viability, T/C [19]: 88%
viability, T/C [20]: 76.4%
viability, T/C [21]: 56.7%
viability, T/C [22]: 33%
viability, T/C (second compound 0.316 µM, first compound 0.00316 µM): 105%
viability, T/C (second compound 0.316 µM, first compound 0.01 µM): 94.7%
viability, T/C [23]: 84.6%
viability, T/C [24]: 80.3%
viability, T/C [25]: 60.1%
viability, T/C [26]: 30.2%
viability, T/C (second compound 1 µM, first compound 0.00316 µM): 90.3%
viability, T/C (second compound 1 µM, first compound 0.01 µM): 95.5%
viability, T/C [27]: 88.5%
viability, T/C [28]: 80.7%
viability, T/C [29]: 58.1%
viability, T/C [30]: 27.6%

SMILES: C=CC(=O)Nc1cc(Nc2nccc(-c3cn(C)c4ccccc34)n2)c(OC)cc1N(C)CCN(C)C
viability, T/C (compound 0.00316 µM): 96.4% [middle of 4 runs]
viability, T/C (compound 0.01 µM): 92% [middle of 4 runs]
viability, T/C (compound 0.0316 µM): 83.7% [middle of 4 runs]
viability, T/C (compound 0.1 µM): 79.4% [middle of 4 runs]
viability, T/C (compound 0.316 µM): 63.1% [middle of 4 runs]
viability, T/C (compound 1 µM): 40.1% [middle of 4 runs]
IC50 (curve of compound): 597 nM [middle of 4 runs]

SMILES: CC(=O)OC12COC1CC(O)C1(C)C(=O)C(O)C3=C(C)C(OC(=O)C(O)C(NC(=O)OC(C)(C)C)c4ccccc4)CC(O)(C(OC(=O)c4ccccc4)C21)C3(C)C (stereo unspecified)
viability, T/C (compound 0.0316 µM): 71.6% [middle of 4 runs]
viability, T/C (compound 0.1 µM): 68.3% [middle of 4 runs]
viability, T/C (compound 0.316 µM): 72.2% [middle of 4 runs]
viability, T/C (compound 1 µM): 76.2% [middle of 4 runs]
viability, T/C (compound 10 µM): 90.3% [middle of 4 runs]
pIC50 (curve of compound): < 5.00

The next lines start with results.

pIC50 (curve of compound): < 7.00 and 7.22
SMILES: CC(C)n1nc(-c2ccc3oc(N)nc3c2)c2c(N)ncnc21
viability, T/C (compound 0.000316 µM): 101% [middle of 4 runs]
viability, T/C (compound 0.001 µM): 99.3% [middle of 4 runs]
viability, T/C (compound 0.00316 µM): 91.7% [middle of 4 runs]
viability, T/C (compound 0.01 µM): 81.6% [middle of 4 runs]
viability, T/C (compound 0.0316 µM): 73.5% [middle of 4 runs]
viability, T/C (compound 0.1 µM): 61.9% [middle of 4 runs]

IC50 (curve of compound): 114 nM [middle of 4 runs]
SMILES: CCc1c2c(nc3ccc(O)cc13)-c1cc3c(c(=O)n1C2)COC(=O)[C@]3(O)CC
viability, T/C (compound 0.000949 µM): 91.9% [middle of 4 runs]
viability, T/C (compound 0.003 µM): 96.8% [middle of 4 runs]
viability, T/C (compound 0.00949 µM): 86.8% [middle of 4 runs]
viability, T/C (compound 0.03 µM): 73.4% [middle of 4 runs]
viability, T/C (compound 0.0949 µM): 52.8% [middle of 4 runs]
viability, T/C (compound 0.3 µM): 34.5% [middle of 4 runs]
